# Laboratory results reported in patent publication US20240238256A1, “NITAZOXANIDE IN THE TREATMENT OF SEPSIS” (GENFIT, priority 2021, published 2024).
# Key:
# [1] = system: polymicrobial sepsis induced by cecal ligation and puncture (CLP); test: CLP-induced polymicrobial sepsis, survival (Example 1); format: in vivo, C57BL6J male mice
# Text: Polymicrobial sepsis induced by cecal ligation and puncture (CLP) is characterized by dysregulated systemic inflammatory responses followed by immunosuppression. The CLP model in mice mimics the progression and features of human sepsis and is thus also useful to determine whether a drug would be efficient in the treatment of prevention of transition from sepsis to septic shock.
# This study aims to investigate the efficacy of NTZ in CLP model in C57BL6J (BL6) male mice. The efficacy of the test compound was evaluated based on the survival rate of the animals within the study period.
# C57BL6J male mice (supplier Janvier—France) at 9 weeks of age and weighing 23-25 g on arrival were anesthetized with 250 µL of xylazine/ketamine solution (6.75 mg/kg for ketamine (Imalgene, Boehringer, Germany) et 2.5 mg/kg for xylazine (Rompund 2%, Bayer, Germany)) by intraperitoneal route. A 1-1.5 cm abdominal midline incision was made, and the cecum was located and tightly ligated at half the distance between distal pole and the base of the cecum with 4-0 silk suture (mild grade). The caecum was punctured through-and-through once with a 21-gauge needle from mesenteric toward antimesenteric direction after medium ligation. A small amount of stool was extruded to ensure that the wounds were patent. Then the cecum was replaced in its original position within the abdomen, which was closed with sutures and wound clips. Mice were followed for body weight evolution and mortality rate until Day 7.
# NTZ (Interchim, France) was administered by oral gavage at 50 mg/kg BID. NTZ treatment was initiated 3 days before CLP. The day of the surgery, NTZ was given once (50 mg/kg) 1 h before CLP and then a second time when animals have recovered from anesthesia (50 mg/kg). BID treatments was then pursued daily until the end of the study (n=15). Mice receiving NTZ vehicle (carboxymethylcellulose (#C4888, Sigma-Aldrich, Germany) BID served as controls (n=10). […]
# [2] = system: polymicrobial sepsis induced by CLP surgery; test: CLP-induced sepsis, survival and welfare scoring, NTZ with or without 3-day pretreatment (Example 4); format: in vivo, C57BL6J mice; conditions: for mortality at 55 hours post-surgery: control group 60%; for mice survived sepsis at the end of the study: untreated 12.5%
# Experimental: Polymicrobial sepsis was induced by CLP surgery in C57BL6J mice, as described in Example 1. NTZ was prepared as previously described and administrated per os at 100 mg/kg/day BID either starting 3 days before CLP (3 day pretreatment) or starting on the same day as the CLP surgery (without pretreatment) as shown in FIG. 5A. C57BI/6J male mice (8 week-old, Janvier, France) were divided into 3 groups of 24 mice each, after 7 days acclimation: • Group 1 received vehicle for 3 days before surgery and for 6 days after CLP surgery. • Group 2 received nitazoxanide (NTZ) for 3 days before surgery and then for 6 days after CLP surgery (pretreatment). • Group 3 received vehicle for 3 days before surgery and then NTZ for 6 days after CLP surgery (without pretreatment).
# Treatments with NTZ were made twice daily at 9 am and […]. The day of the CLP surgery (Day 0), mice received NTZ or vehicle one hour before being anaesthetized (groups 2 and 3).
# Welfare scoring of severity of murine sepsis model has been published to harmonize human end points and also to normalize grades observed between animals throughout experiments (Shrum B, Anantha R V, Xu S X et al. A robust scoring system to evaluate sepsis severity in an animal model. BMC Res Notes 2014; 7:233). Animals were individually observed, and changes were recorded and scored according to their intensity. Observations included changes in appearance, activity, response to stimuli, eyes opening, breathing quality and evolution of body weight. For each of these clinical signs, the severity was measured on a scale of 0 to 3. The evolution of the severity was followed and the mean score at each time point was calculated and plotted on graphs. Arbitrary, when mice die or are euthanized, they are scored at 4.
# [3] = system: caspase 3/7 activity in HepG2 cells; test: Staurosporine-induced apoptosis (caspase 3/7 activity) in HepG2 cells; format: cell-based, human; conditions: for inhibition at 6 µM: Homo sapiens, HepG2, 6 μM
# Experimental: The human hepatoblastoma-derived HepG2 cell line was cultured as described in Example 2. Caspase 3/7 activity was assessed in 1.5×10^4 cells plated in a 384-well plate (#781080, Greiner, France). After cell adherence (8 hours), cells were serum starved for 16 h with or without TZ, the active metabolite of NTZ. […] Caspase 3/7 activity was measured as previously described.
# [4] = system: polymicrobial sepsis induced by CLP surgery; test: CLP-induced sepsis, survival and welfare scoring, NTZ before/after or only after surgery (Example 5); format: in vivo, C57BL6J mice; conditions: for mortality at 55 hours post-surgery: control group 55%; for mice survived sepsis at the end of the study (day 7): untreated 20%
# Experimental: Polymicrobial sepsis was induced by CLP surgery in C57BL6J mice, and NTZ was prepared and administrated per os, as described previously. […]
# During the 6 days following the surgery, treatments with NTZ were made twice daily at 9 am and 5 pm at the dose of 100 mg/kg/day (p.o. BID) per mouse. Control mice received vehicle the same way to avoid any deviations between control and treated mice.
# [5] = system: caspase 3/7 activity in HepG2 cells; test: TNFα-induced apoptosis (caspase 3/7 activity) in HepG2 cells; format: cell-based, human; conditions: for increased caspase 3/7 activity: 24 hours
# Experimental: In order to evaluate the effect of NTZ on human hepatocytes that undergo a cellular stress induced by cytokines, the human hepatoblastoma-derived HepG2 cell line (#85011430, ECACC, UK) was cultured with or without TZ, the active metabolite of NTZ, in high-glucose DMEM medium (#41965, Gibco, France) supplemented with 10% of fetal bovine serum (FBS, #10270, Gibco), 1% penicillin/streptomycin (#15140, Gibco), 1% sodium pyruvate (#11360, Gibco) and 1% MEM non-essential amino acids (#11140, Gibco) in a 5% CO2 incubator at 37° ° C. To evaluate caspase 3/7 activity, which is a surrogate marker of apoptosis, 5×10^4 cells were plated in a 96-well plate (Thermo Fischer, Germany). After cell adherence (8 hours), cells were pre-treated with a dose range of 0.3 to 3 μM of TZ (Interchim, France), in FBS-deprived cell culture medium for 16 h. Thereafter, tumor necrosis factor α (TNFα) (#C6378, Promocell, Germany) was added to the wells at the dose of 10 or 30 ng/ml for additional 24 hours. Staurosporine (10 μM) (#19-123MG, Sigma-Aldrich, Germany) was used as a reference to induce apoptosis. Cells were incubated with staurosporine 3 hours before Caspase activity measurement. Caspase 3/7 activity was measured using Caspase Glow™ 3/7 assay (#G8093, Promega, USA). Luminescence was measured using a Spark microplate reader (#30086376, Tecan, USA). The amount of luminescence (RLU) directly correlates with caspase 3/7 activity.
# [6] = NTZ per os 100 mg/kg/day BID from day of CLP, without pretreatment
# [7] = NTZ per os 100 mg/kg/day BID with 3-day pretreatment
# [8] = concomitant addition with staurosporine, without pretreatment
# [9] = NTZ BID T-1 h/T+3.5 h, 100 mg/kg/day p.o.
# [10] = NTZ QD T+3.5 h (100 mg/kg) then 50 mg/kg BID p.o.
compound,measurement,setting,value
C[C@@H](O)[C@H]1C(=O)N2C(C(=O)O)=C(S[C@@H]3CN[C@H](C(=O)Nc4cccc(C(=O)O)c4)C3)[C@H](C)[C@H]12 [Ertapenem],mice saved at the end of the study,"[1]; Ertapenem 10 mg/kg intraperitoneal, 1 h before surgery and daily after CLP, Day 7",10%
"CC(=O)Oc1ccccc1C(=O)Nc1ncc([N+](=O)[O-])s1 [NTZ, [2-[(5-nitro-1,3-thiazol-2-yl)carbamoyl]phenyl]ethanoate]",mice survived 7 days after intervention,"[1]; NTZ oral gavage 50 mg/kg BID, started 3 days before CLP",33%
same,mice still alive 3 days after surgery,"[1]; NTZ oral gavage 50 mg/kg BID, started 3 days before CLP, vehicle group 100% mortality at 3 days",47%
same,mortality at 55 hours post-surgery,[2]; [6],17%
same,mice survived sepsis at the end of the study,[2]; [6],58.3%
same,mortality at 55 hours post-surgery,[2]; [7],25%
same,mice survived sepsis at the end of the study,[2]; [7],45.8%
same,inhibition at 6 µM,[3]; [8],78%
same,mortality at 55 hours post-surgery,[4]; [9],5%
same,mice survived sepsis at the end of the study (day 7),[4]; [9],80%
same,mortality at 55 hours post-surgery,[4]; [10],15%
same,mice survived sepsis at the end of the study (day 7),[4]; [10],70%
"O=C(Nc1ncc([N+](=O)[O-])s1)c1ccccc1O [TZ, tizoxanide]",inhibition at 6 µM,"[3]; 16 h pretreatment, staurosporine 30 μM",82%
same,inhibition at 6 µM,[3]; [8],64%
same,inhibition at 3 µM,"[5]; Homo sapiens, 3 μM TZ, 16 h pretreatment, 10 ng/ml TNFα",40%
same,reduction of caspase activity,"[5]; TZ pretreatment, higher TNFα dose (30 ng/ml)",this effect was confirmed with the higher TNFα dose
CN[C@@H]1C[C@H]2O[C@@](C)([C@@H]1OC)n1c3ccccc3c3c4c(c5c6ccccc6n2c5c31)C(=O)NC4 [staurosporine],increase of caspase 3/7 activity,"[3]; staurosporine 30 μM, 4 hours",11 fold
TNFα,increased caspase 3/7 activity,[5]; 10 ng/ml TNFα,1.5 fold
same,increased caspase 3/7 activity,[5]; 30 ng/ml TNFα,1.7 fold
